Molecules are shown by their SMILES. “Also recorded” adds a separate entry of the source. Read-outs that look alike come from different tables or passages of the source. Some results are limits rather than exact numbers.

One data set can be described thus: in vitro. The conditions noted are these: human.
In data set [1] the test system is HCoV-229E. Kind of data set: Dose-response of HCoV-229E viral load (dsRNA) in Huh-7.5.1 cells. The data set is classed as cell-based, human coronavirus 229E (HCoV-229E). The conditions noted are these: Human coronavirus 229E, read-out: ED50 (HCoV-229E).
Data set [2] deals with HCoV-229E. The class given is cell-based, human coronavirus 229E (HCoV-229E).
The test system of data set [3] is SARS-CoV-2 Spike S1 protein expression. The class given is cell-based.
The subject of data set [4] is SARS-CoV-2. As to the kind of experiment: SARS-CoV-2 infected primary donor-derived colon organoids, intracellular N protein. The data set is classed as cell-based. The following applies: donor intestinal organoids monolayer, 72-hours post infection, dose-dependent.
Data set [5] deals with SARS-CoV-2. As to the kind of experiment: Dose-response of SARS-CoV-2 viral load (intracellular N protein) in Huh-7.5.1 cells. The data set is classed as cell-based.
The test system of a further data set is Huh-7.5.1 cells. The conditions noted are these: single dose of 10 μM.
Data set [6] relates to SARS-CoV-2. Kind of data set: High-content screen of GSK3β-focused library in SARS-CoV-2 infected Huh-7.5.1 cells (dsRNA or nucleocapsid). The following applies: Severe acute respiratory syndrome coronavirus 2, single dose of 10 μM, Huh-7.5.1 cells. The data set is classed as cell-based.
In data set [7] the test system is HCoV-229E. As to the kind of experiment: High-content screen of GSK3β-focused library in HCoV-229E infected Huh-7.5.1 cells (intracellular dsRNA). The following applies: Human coronavirus 229E, single dose of 10 μM, Z′ 0.7. The data set is classed as cell-based, human coronavirus 229E (HCoV-229E).
The test system of data set [8] is SARS-CoV-2. Kind of data set: Viral titer released from 48-hour SARS-CoV-2 infected Calu-3 cells. The data set is classed as cell-based. The following applies: 48 hours after infection, 100 μM.
Data set [9] has as its system SARS-CoV-2. Kind of data set: Dose-response inhibition in three SARS-CoV-2 infected immortalized cell lines (Huh-7.5.1, Caco-2, Calu-3). The data set is classed as cell-based. The following applies: Severe acute respiratory syndrome coronavirus 2; Huh-7.5.1, Caco-2 and Calu-3 cells; read-out: ED50 in all investigated cell lines.

`CSc1ccc(-n2cnc3ccc(-c4nnc(CCc5cccc(C#N)c5)o4)cc32)cc1` [Compound P-0717632]: the CC50 in “in vitro” was above 100 µM. Moreover, the EC50 in the data set on HCoV-229E [1] is around 3 µM; in the data set on SARS-CoV-2 [5] (Severe acute respiratory syndrome coronavirus 2, Huh-7.5.1, Huh-7.5.1 cells, intracellular N protein, read-out: ED50 (SARS-CoV-2)), around 3 µM; in the data set with SARS-CoV-2 [9] it was 4 to 7 µM. Moreover, in the data set with HCoV-229E [2], the “average Combination Index (CI)” value is given as 0.7. The “Spike S1 protein expression” value in data set [3] is on record as “blocked; also recorded: reduced”. Further, the “effect on intracellular N protein levels in organoids” value in the data set on SARS-CoV-2 [4] is listed as “greatly decrease intracellular N protein levels”. In the data set on SARS-CoV-2 [5] (Huh 7.5.1 cells), the “SARS-CoV-2 Selectivity Index SI (CC50 over ED50)” value is 68. The same compound registered an ED80 in the data set on SARS-CoV-2 [5] (SARS-CoV-2 infected Huh-7.5.1 cells) of 10 µM. For the same compound, the “Average cell loss (%)” value in the data set with Huh-7.5.1 cells was determined as 24.4%. For the same compound, the inhibition at 10 µM was 68.2% in the data set on SARS-CoV-2 [6] (Z′ 0.3, read-out: SARS-CoV-2 inhibition (% dsRNA)); 79.3% in the data set on SARS-CoV-2 [6] (average of screens 1 and 2, read-out: Average SARS-CoV-2 Nucleocapsid inhibition); 75.2% in the data set on SARS-CoV-2 [6] (screen 1, Z′ 0.7, read-out: SARS-CoV-2 inhibition (% Nucleocapsid) 1); 83.3% in the data set with SARS-CoV-2 [6] (screen 2, Z′ 0.5, read-out: SARS-CoV-2 inhibition (% Nucleocapsid) 2); 97.6% with HCoV-229E [7]. The “reduction of release of infective particles” value in the data set with SARS-CoV-2 [8] stood at 2 log.

By inhibition is commonly meant the change of the read-out against control, counted positive when it falls.

These data come from US20250042887A1, “GLYCOGEN SYNTHASE KINASE-3 (GSK3) INHIBITOR COMPOUNDS FOR USE AS ANTIVIRAL AGENTS” (priority 2021, published 2025).
